Measured values taken from patent US6365195B2, “Fungicidal active compound combinations” (Bayer Aktiengesellschaft, priority 1993, dated 2002).

Columns and labels:
Type in all cases: in vivo
Botrytis cinerea = experiment: Botrytis test (bean)/protective; conditions: protective, 3 days after inoculation
Procedure: After the spray coating has dried on, 2 small pieces-of agar covered with Botrytis cinerea are placed on each leaf. The inoculated plants are placed in a darkened humid chamber at 20° C.
3 days after the inoculation, the size of the infected spots on the leaves is evaluated.

[1] = tested on: Erysiphe graminis f.sp.hordei; experiment: Erysiphe-test (wheat)/curative; conditions: curative, 200 g/ha, 7 days after inoculation
Procedure: Solvent: 10 parts by weight of N-methyl-pyrrolidone Emulsifier: 0.6 parts by weight of alkylaryl-polglycolether To produce a suitable preparation of active compound, 1-part by weight of active compound is mixed with the stated amounts of solvent and emulsifier, and the concentrate is diluted with water to the desired concentration. To test for curative activity, young plants are dusted with spores of Erysiphe graminis f.sp.hordei. 48 hours after the inoculation, the plants are sprayed with the preparation of active compound until dew-moist. The plants are placed in a greenhouse at a temperature of about 20° C. and a relative atmospheric humidity of about 80%, in order to promote the development of powdery mildew pustules. Evaluation is carried out 7 days after the inoculation.

Leptosphaeria nodorum [2] = experiment: Leptosphaeria nodorum test (wheat)/protective; conditions: protective, 10 days after inoculation
Procedure: Solvent: 100 parts by weight of dimethylformamide
Emulsifier: 0.25 parts by weight of alkylaryl polyglycol ether
(§1) To produce a suitable preparation of active compound, 1-part by weight of active compound is mixed with the stated amounts of solvent and emulsifier, and the concentrate is diluted with water to the desired concentration.
(§2) To test for protective activity, young plants are sprayed with the preparation of active compound until dew-moist. After the spray coating has dried on, the plants are sprayed with a spore suspension of Leptosphaeria nodorum. The plants remain for 48 hours in an incubation cabin at 20° C. and 100% relative atmospheric humidity.
(§3) The plants are placed in a greenhouse at a temperature of 15° C. and a relative atmospheric humidity of about 80%.
(§4) Evaluation is effected 10 days after the inoculation.

[3] = tested on: Erysiphe graminis f.sp. hordei; experiment: Erysiphe test (barley)/protective; conditions: protective, 50 g/ha, 7 days after inoculation
Procedure: (§5) Solvent: 10 parts by weight N-methyl-pyrrolidon
(§6) Emulsifier: 0.6 parts by weight alkylarylpoly-glycolether
To produce a suitable preparation of active compound, 1 part by weight of active compound is mixed with the stated amounts of solvent and emulsifier, and the concentrate is diluted with water to the desired concentration.
To test for protective activity, young plants are sprayed with the preparation of active compound until dew-moist. After the spray coating has dried on, the plants are dusted with spores of Erysiphe graminis f.sp. hordei.
The plants are placed in a greenhouse at a temperature of about 20° C. and a relative atmospheric humidty of about 80%, in order to promote the development of powdery mildew pustules.
(§7) Evaluation is carried out 7 days after the inoculation.

[4] = tested on: Erysiphe graminis f. sp. hordei; experiment: Erysiphe test (wheat) protective; conditions: 7 days after inoculation
Procedure: Solvent: 10 parts by weight N-methyl-pyrrolidone
as §6, §1
To test for protective activity, young plants are dusted with spores of Erysiphe graminis f. sp. hordei. […]
The plants are placed in a greenhouse at a temperature of about 20° C. and a relative atmospheric humidity of about 80%, in order to promote the development of powdery mildew pustules.
as §7

Leptosphaeria nodorum [5] = experiment: Leptosphaeria nodorum test (wheat)/curative; conditions: curative, 400 g/ha, 10 days after inoculation
Procedure: Solvent: 10 parts by weight of dimethyl-formamide
Emulsifier: 0.6 parts by weight of alkylaryl polyglycol ether
To produce a suitable preparation of active compound, 1-parts by weight of active compound is mixed with the stated amounts of solvent and emulsifier, and the concentrate is diluted with water to the desired concentration.
as §2, with “curative” for “protective”
as §3, §4

Pyrenophora teres = Pyrenophora teres test (barley)/protective; conditions: protective, 25 g/ha, 7 days after inoculation
Procedure: as §5, §6, §1
To test for protective activity, young plants are sprayed with the preparation of active compound until dew moist. After the spray coating has dried off, the plants are sprayed with a conidia suspension of Pyrenophora teres. The plants then remain in an incubation cabin at 20° C. and 100% relative atmospheric humidity for 48 hours.
The plants are placed in a greenhouse at a temperature of about 20° C. and a relative atmospheric humidity of about […].
Evaluation is carried out 7 days after inoculation.

CC12CC1(C)C(=O)N(c1cc(Cl)cc(Cl)c1)C2=O (stereo not drawn) [Procymidone, procymidone]
Degree of effectiveness in % of the untreated control (Botrytis cinerea; 50 ppm): 44%

CO/C=C(\C(=O)OC)c1ccccc1Oc1cc(Oc2ccccc2C#N)ncn1 [(ηb)]
Degree of effectiveness in % of the untreated control [1]: 75%

N#Cc1c(Cl)c(Cl)c(Cl)c(C#N)c1Cl [Chlorothalonil, tetrachloro-isophthalo-dinitrile]
Degree of effectiveness in % of the untreated control (Botrytis cinerea; 200 ppm): 37%

CC(C)(C)C(O)(CCc1ccc(Cl)cc1)Cn1cncn1 (stereo not drawn) [Tebuconazole]
Degree of effectiveness in % of the untreated control (Leptosphaeria nodorum [2]; spray liquor 25 ppm): 75%

CO/C=C(\C(=O)OC)c1ccccc1Oc1cc(Oc2ccccc2C#N)ncn1 [(ηa)]
Degree of effectiveness in % of the untreated control [3]: 15% | Degree of effectiveness in % of the untreated control ([4]; 200 g/ha): 79%

CO/N=C(\C(=O)OC)c1ccccc1COc1ccccc1C [(ηb)]
Degree of effectiveness in % of the untreated control [3]: 85% | Degree of effectiveness in % of the untreated control ([4]; 25 g/ha): 85% | Degree of activity in % of the untreated control (Leptosphaeria nodorum [5]): 49% | Degree of effectiveness in % of the untreated control (Pyrenophora teres): 33%

O=C1c2ccccc2C(=O)N1SC(Cl)(Cl)Cl [Phaltan, phaltan]
Degree of effectiveness in % of the untreated control (Botrytis cinerea; 50 ppm): 0%

CC1(C(=O)Nc2ccc(O)c(Cl)c2Cl)CCCCC1 [(I)]
Degree of effectiveness in % of the untreated control (Botrytis cinerea; 5 ppm): 51% | Degree of effectiveness in % of the untreated control (Leptosphaeria nodorum [2]; concentration not given): 0% | Degree of effectiveness in % of the untreated control [3]: 0% | Degree of effectiveness in % of the untreated control ([4]; 25 g/ha): 30% | Degree of effectiveness in % of the untreated control ([4]; 200 g/ha): 85% | Degree of effectiveness in % of the untreated control [1]: 30% | Degree of activity in % of the untreated control (Leptosphaeria nodorum [5]): 25% | Degree of effectiveness in % of the untreated control (Pyrenophora teres): 33%

O=[N+]([O-])c1cc(C(F)(F)F)c(Cl)c([N+](=O)[O-])c1Nc1ncc(C(F)(F)F)cc1Cl [Fluazinam, fluazinam]
Degree of effectiveness in % of the untreated control (Botrytis cinerea; 5 ppm): 20%

CN(C)S(=O)(=O)N(SC(F)(Cl)Cl)c1ccccc1 [Dichlofluanid, dichlofluanid]
Degree of effectiveness in % of the untreated control (Botrytis cinerea; 100 ppm): 32%

COC(=O)Nc1nc2ccccc2[nH]1 [Carbendazim, methyl benzimidazole-2-carbamate]
Degree of effectiveness in % of the untreated control (Botrytis cinerea; 5 ppm): 52%

Cc1cc(C)nc(Nc2ccccc2)n1 [Pyrimethanil, pyrimethanil]
Degree of effectiveness in % of the untreated control (Botrytis cinerea; 10 ppm): 0%

Cc1ccc(N(SC(F)(Cl)Cl)S(=O)(=O)N(C)C)cc1 [Tolylfluanid, tolylfluanid]
Degree of effectiveness in % of the untreated control (Botrytis cinerea; 50 ppm): 32%
